Results on 1 molecule are retold here after patent publication US7569539B2, “Oral administration of calcitonin” (Novartis AG, priority 2002, dated 2009).

Read-outs that look alike come from different tables or passages of the source.

A short description of data set [1]: Effect of meal timing on plasma sCT after oral sCT/5-CNAC tablet in human subjects (Example 7). Conditions: for AUC / Cmax: both sexes, human, plasma, po, 1 mg, oral tablet 1 mg sCT + 5-CNAC disodium salt, plasma sCT; for AUC: read-out: Mean AUC ± SD; for Cmax: read-out: Mean Cmax ± SD. It is filed as in vivo. As for the experimental part:
The effect of administration of a tablet formulation of sCT in combination with 5-CNAC disodium salt at various time intervals relative to meals is measured in human subjects.
The tablet formulation employed is a formulation according to Example 5, comprising 1 mg sCT and 5-CNAC disodium salt in an amount corresponding to […] of 5-CNAC.
The study employs a seven-period, randomized, open-label, balanced Latin-square, crossover design. Twenty-one human healthy adult subjects (7 males, 7 pre-menopausal females and 7 post-menopausal females), between the ages of 18 and 65 years of age are involved. Pre- and post-menopausal females are matched for height (±0.5 cm) and weight (±8%).
The study consists of a screening period (−21 to −2 days prior to dosing), a baseline period (24-hour period prior to dosing, or day −1), and a treatment period comprised of seven daily single-dose administrations. Subjects are instructed to fast for at least 8 hours prior to undergoing screening evaluations so that blood samples can be drawn for bioanalytical testing. At baseline, subjects are admitted to the study center at least 12 hours prior to dosing and remain domiciled until study completion (one day following the final dose of study drug, or study day 8). The interdose interval between each treatment will be approximately 24 hours. Subjects are randomized according to the treatment allocation schedule to receive a single oral dose under either fasted or fed conditions. Under fed conditions, meal times vary relative to a fixed dosing time, in order to assess the effect of varying meal and dose intervals on drug pharmacokinetics.
During the treatment period, subjects fast overnight for a minimum of 10 hours prior to dosing, except when the specified treatment condition requires a meal to be served pre-dose. Dosing occurs between 9 and 10 AM for seven consecutive days. Meal times vary around a fixed dosing interval over a seven-day treatment period in order to determine optimal dosing times relative to food intake. Included is the administration of study drug under fasting conditions, which will serve as the reference condition to assess drug pharmacokinetics under varying meal and dose intervals, as well as study drug administration with meals, to determine the extent of food interaction.
The order in which subjects are initially dosed remains consistent throughout the study, so that the first subject dosed in period 1 remains the first subject dosed across all treatment conditions. Except where fasting is the specified treatment condition, subjects receive a standardized FDA (or equivalent) high-fat breakfast at a different time each day relative to dosing. Subjects whose treatment assignment is to fast, continue fasting for at least four hours post-dose, after which they may receive a standard meal at the specified time. Sampling for pharmacokinetic assessments are performed at scheduled intervals for up to 8 hours post-dose. If pharmacokinetic sampling times coincide with the start of a meal, sampling occurs first. Subjects are discharged from the study center one day following the final dose of study drug (day 8), after the completion of all safety evaluations.
Pharmacokinetic blood sampling is performed each day at the following timepoints (unless otherwise specified, when sampling times coincide with the start of a meal, sampling is done first): pre-dose (5 mL blood on each treatment day, lithium-heparin tubes to yield plasma), and then 5, 10, 15, 30, 45, 60, 90, 120, 180 and 240 minutes post-dose (3 mL blood), lithium-heparin tube to yield plasma). For treatment conditions B, C, D and E (see table below) one additional sample (3 mL) is obtained at 5 minutes after the start of the meal. For treatment condition E, the 10 minute sample also represents the 5-minute post-meal sample. For treatment B only, one additional sample is obtained at 15 minutes after the start of the meal (i.e., at 75 minutes post-dose). […]

Assay in data set [2]: as above
Format: in vivo. Conditions: tablet 1 mg sCT + 5-CNAC disodium salt (equivalent to 200 mg 5-CNAC), 5 to 60 minutes prior to a meal instead of with a meal.

Where [3] appears, read: Treatment group A: after overnight fast.
[4] abbreviates: Treatment group B: 1 hour pre-meal.
The mark [5] stands for this setting: Treatment group C: 30 minutes pre-meal.
The mark [6] stands for this setting: Treatment group D: 15 minutes pre-meal.
Setting [7] is: Treatment group E: 5 minutes pre-meal.
Where [8] appears, read: Treatment group G: 2.5 hours post-meal.

On to `CC(C)C[C@H](NC(=O)[C@H](CCCCN)NC(=O)CNC(=O)[C@H](CC(C)C)NC(=O)[C@@H](NC(=O)[C@@H]1CSSC[C@H](N)C(=O)N[C@@H](CO)C(=O)N[C@@H](CC(N)=O)C(=O)N[C@@H](CC(C)C)C(=O)N[C@@H](CO)C(=O)N[C@@H]([C@@H](C)O)C(=O)N1)C(C)C)C(=O)N[C@@H](CO)C(=O)N[C@@H](CCC(N)=O)C(=O)N[C@@H](CCC(=O)O)C(=O)N[C@@H](CC(C)C)C(=O)N[C@@H](Cc1c[nH]cn1)C(=O)N[C@@H](CCCCN)C(=O)N[C@@H](CC(C)C)C(=O)N[C@@H](CCC(N)=O)C(=O)N[C@H](C(=O)N[C@@H](Cc1ccc(O)cc1)C(=O)N1CCC[C@H]1C(=O)N[C@@H](CCCNC(=N)N)C(=O)N[C@H](C(=O)N[C@@H](CC(N)=O)C(=O)N[C@H](C(=O)NCC(=O)N[C@@H](CO)C(=O)NCC(=O)N[C@H](C(=O)N1CCC[C@H]1C(N)=O)[C@@H](C)O)[C@@H](C)O)[C@@H](C)O)[C@@H](C)O` [sCT, salmon calcitonin], for which the “plasma levels of sCT” value in data set [1] (Groups C and D: administered either 15 or 30 minutes before a meal) is given as “maximum plasma levels”; in data set [1] (administration with a meal (Group F)), “negligible”. Further, the AUC is 0.0663 ± 0.0422 ng·h/mL in data set [1] (setting [3]); 0.0634 ± 0.0379 ng·h/mL in data set [1] (setting [4]); 0.079 ± 0.0793 ng·h/mL in data set [1] (setting [5]); 0.0721 ± 0.0451 ng·h/mL in data set [1] (setting [6]); 0.0604 ± 0.0674 ng·h/mL in data set [1] (setting [7]); 0.0126 ± 0.0185 ng·h/mL in data set [1] (Treatment group F: with meal). For the same molecule, the AUC in data set [1] (setting [8]) turned out to be 0.0611 ± 0.114 ng·h/mL. Moreover, the Cmax was determined as 0.139 ± 0.0743 ng/mL in data set [1] (setting [3]); 0.136 ± 0.0647 ng/mL in data set [1] (setting [4]); 0.162 ± 0.142 ng/mL in data set [1] (setting [5]); 0.162 ± 0.0679 ng/mL in data set [1] (setting [6]); 0.149 ± 0.151 ng/mL in data set [1] (setting [7]); 0.024 ± 0.0267 ng/mL in data set [1] (Treatment group F: with meal). Also, the Cmax in data set [1] (setting [8]) stood at 0.0798 ± 0.134 ng/mL. The “increase (Cmax and AUC) in oral absorption” value in data set [2] is reported as roughly 5 fold.
